Results on 20 molecules are retold here after ChEMBL document CHEMBL4396974, “Synthesis and evaluation of a novel quinoline-triazole analogs for antitubercular properties via molecular hybridization approach” (Bioorg Med Chem Lett, 2019).

Holding throughout (details): read-out: INH
A short description of data set [1]: Cytotoxicity against human HEK293 cells at 10 uM measured after 48 hrs by sulforhodamine B assay relative to control. Format: cell-based.
Data set [2] is described as follows: Cytotoxicity against human PC3 cells at 10 uM measured after 48 hrs by sulforhodamine B assay relative to control. Format: cell-based, PC-3. In general terms: Sulforhodamine B stains cellular protein and so reports cell mass.
Data set [3] can be described thus: Cytotoxicity against human PANC1 cells at 10 uM measured after 48 hrs by sulforhodamine B assay relative to control. The data set is classed as cell-based, PANC-1.
A short description of data set [4]: Cytotoxicity against human HeLa cells at 10 uM measured after 48 hrs by sulforhodamine B assay relative to control. The data set is classed as cell-based.
The nature of data set [5]: Cytotoxicity against human SKOV3 cells at 10 uM measured after 48 hrs by sulforhodamine B assay relative to control. The data set is classed as cell-based, SK-OV-3.
Data set [6] can be described thus: Cytotoxicity against human HeLa cells at 2 uM measured after 48 hrs by sulforhodamine B assay relative to control. The data set is classed as cell-based.
Data set [7] can be described thus: Cytotoxicity against human SKOV3 cells at 2 uM measured after 48 hrs by sulforhodamine B assay relative to control. The data set is classed as cell-based, SK-OV-3.
The nature of data set [8]: Cytotoxicity against human PANC1 cells at 2 uM measured after 48 hrs by sulforhodamine B assay relative to control. The data set is classed as cell-based, PANC-1.
A short description of data set [9]: Cytotoxicity against human PC3 cells at 2 uM measured after 48 hrs by sulforhodamine B assay relative to control. Format: cell-based, PC-3.
The nature of data set [10]: Cytotoxicity against human HEK293 cells at 2 uM measured after 48 hrs by sulforhodamine B assay relative to control. The data set is classed as cell-based.

On to `CCCCCc1cn(C(c2ccccc2)c2cc3cc(Br)ccc3nc2OC)nn1` (stereo not given), for which the cytotoxicity at 48 h, 10 µM in data set [1] was -2%; in data set [2], 11.4%; in data set [3], 5.07%; in data set [4] it was -9.81%; in [5] it was 10.5%.

On to `COc1nc2ccc(Br)cc2cc1C(c1ccccc1)n1cc(-c2ccc(Br)cc2)nn1` (stereo not given), for which the cytotoxicity at 48 h, 10 µM came out at 6.28% in data set [1]; 7.43% in data set [2]; 10.4% in data set [3]; 6.92% in [4]; 13.4% in data set [5].

`COc1nc2ccc(Br)cc2cc1C(c1ccccc1)n1cc(-c2ccc(OC(F)(F)F)cc2)nn1` (stereo not given): the cytotoxicity at 48 h, 10 µM in data set [1] was 5.8%; in [2], 21.6%; in [3], 11.7%; in data set [4] it was -2.24%; in data set [5], 14.8%.

Take `COc1nc2ccc(Br)cc2cc1C(c1ccccc1)n1cc(C2CC2)nn1` (stereo not given): the cytotoxicity at 48 h, 10 µM in [1] was 8.22%; in data set [2], 22.6%; in [3] it was 21.8%; in [4] it was -5.84%; in data set [5], 3.52%.

Take `COc1nc2ccc(Br)cc2cc1C(c1ccccc1)n1cc(-c2ccc(F)cc2)nn1` (stereo not given): the cytotoxicity at 48 h, 10 µM in data set [1] came out at 4.04%; in [2] it was 16.4%; in [3] it was 14.9%; in data set [4] it was 4.27%; in data set [5], 14.3%.

In the case of `COc1nc2ccc(Br)cc2cc1C(c1ccccc1)n1cc(CCCO)nn1` (stereo not given), the cytotoxicity at 48 h, 10 µM is 27.4% in [1]; 14.7% in [2]; 25.5% in [3]; 11.3% in data set [4]; 13.8% in [5].

Regarding `CCCCCCc1cn(C(c2ccccc2)c2cc3cc(Br)ccc3nc2OC)nn1` (stereo not given), the cytotoxicity at 48 h, 10 µM is -3.17% in data set [1]; 2.32% in data set [2]; 6.08% in data set [3]; -0.97% in data set [4]; 7.17% in data set [5].

For `COc1nc2ccc(Br)cc2cc1C(c1ccccc1)n1cc(CCCCCO)nn1` (stereo not given), the cytotoxicity at 48 h, 10 µM in data set [1] was found to be 7.96%; in data set [2] it was 12.9%; in data set [3] it was 19.6%; in data set [4], 1.08%; in data set [5] it was 8.69%.

Turning to `COc1nc2ccc(Br)cc2cc1C(c1ccccc1)n1cc(-c2ccccc2C(F)(F)F)nn1` (stereo not given), the cytotoxicity at 48 h, 10 µM in data set [1] was 14.3%; in [2], 17.4%; in data set [3], 11.4%; in data set [4], -1.3%; in data set [5] it was 9.55%.

As for `CCCCc1cn(C(c2ccccc2)c2cc3cc(Br)ccc3nc2OC)nn1` (stereo not given), the cytotoxicity at 48 h, 10 µM in data set [1] was -3.47%; in [2], 5.54%; in [3] it was 5.46%; in data set [4] it was -2.87%; in [5] it was 11.1%.

With `CCOC(=O)c1cn(C(c2ccccc2)c2cc3cc(Br)ccc3nc2OC)nn1` (stereo not given), the cytotoxicity at 48 h, 10 µM in [1] was 2%; in [2], 16.1%; in [3], 15.4%; in [4], -3.67%; in data set [5], 2.01%.

Take `COc1nc2ccc(Br)cc2cc1C(c1ccccc1)n1cc(CCO)nn1` (stereo not given): the cytotoxicity at 48 h, 10 µM in [1] was determined as 4.54%; in [2] it was 15.5%; in [3], 19.8%; in [4], 0.85%; in data set [5], 8.46%.

As for `COc1nc2ccc(Br)cc2cc1C(c1ccccc1)n1cc(-c2ccccc2F)nn1` (stereo not given), the cytotoxicity at 48 h, 10 µM is 3.97% in [1]; 13.4% in data set [2]; 14.7% in data set [3]; 14.1% in [4]; 7.33% in data set [5].

For the molecule `COc1nc2ccc(Br)cc2cc1C(c1ccccc1)n1cc(CO)nn1` (stereo not given), the cytotoxicity at 48 h, 10 µM turned out to be 11.5% in data set [1]; 4.65% in data set [2]; 15% in data set [3]; 0.25% in data set [4]; 3.23% in [5].

In the case of `CCCc1cn(C(c2ccccc2)c2cc3cc(Br)ccc3nc2OC)nn1` (stereo not given), the cytotoxicity at 48 h, 10 µM in data set [1] is 0.85%; in data set [2], 8.3%; in [3], 11.3%; in data set [4] it was -2.25%; in data set [5], 11.2%.

In the case of `COc1nc2ccc(Br)cc2cc1C(c1ccccc1)n1cc(-c2ccccc2)nn1` (stereo not given), the cytotoxicity at 48 h, 10 µM is 8.25% in [1]; 5.97% in [2]; 30.1% in data set [3]; 13.9% in data set [4]; 13.7% in [5].

As for `COc1nc2ccc(Br)cc2cc1C(c1ccccc1)n1cc(-c2cccc(F)c2)nn1` (stereo not given), the cytotoxicity at 48 h, 10 µM was 6.84% in data set [1]; 14.6% in data set [2]; 15.5% in data set [3]; 9.04% in [4]; 12.7% in data set [5].

`CCCCCCCc1cn(C(c2ccccc2)c2cc3cc(Br)ccc3nc2OC)nn1` (stereo not given): the cytotoxicity at 48 h, 10 µM came to 0.17% in data set [1]; 4.42% in data set [2]; 16.6% in data set [3]; 9.7% in data set [4]; 10.5% in [5].

`CCCCCCCCc1cn(C(c2ccccc2)c2cc3cc(Br)ccc3nc2OC)nn1` (stereo not given): the cytotoxicity at 48 h, 10 µM in [1] is 14.6%; in data set [2], 2.27%; in [3] it was 12.1%; in data set [4], 0.1%; in data set [5], 2.06%.

`COc1cccc2c1C(=O)c1c(O)c3c(c(O)c1C2=O)C[C@@](O)(C(=O)CO)C[C@@H]3O[C@H]1C[C@H](N)[C@H](O)[C@H](C)O1` [DOXORUBICIN]: the cytotoxicity at 48 h, 2 µM in data set [6] is 74.1%; in data set [7] it was 83.3%; in data set [8], 96.1%; in data set [9] it was 86.7%; in data set [10], 75.6%.
